Experimental data taken from patent US20120122870A1, “Treatment Of Ischemia-Reperfusion Injury” (MUSC FOUNDATION FOR RESEARCH DEVELOPMENT, priority 2009, published 2012).

Biological target: T1, recombinant human SK (Homo sapiens, UniProt Q9NYA1)
T1 construct: GST (glutathione-S-transferase) (N); made in house; host or cells: bacteria (pGEX bacterial expression vector)
Assay: Recombinant human SK activity assay ([3H]sphingosine to [3H]S1P)
Assay type: biochemical
Settings: Human SK incubated with 6 μg/mL of compound; percentage of SK activity inhibited
Method: SK activity is measured by incubation of the recombinant SK with [^3H]sphingosine and 1 mM ATP under defined conditions, followed by extraction of the assay mixture with chloroform:methanol under basic conditions. […] Radioactivity in aliquots of the aqueous phase is then quantified as a measure of [^3H]S1P formation.
Human SK was incubated with 6 μg/mL of the indicated compounds, and then assayed for activity as described above. Values in the column labeled “Recombinant SK (% inhibition)” represent the percentage of SK activity that was inhibited. MDA-MB-231 cells were incubated with 20 μg/mL of the indicated compounds and then assayed for endogenous SK activity as indicated above. Values in the column labeled “Cellular S1P (% inhibition)” represent the percentage of S1P production that was inhibited. Additionally, MDA-MB-231 cells were treated with varying concentration of certain compounds and the amount of S1P produced by the cells was determined. Values in the column labeled “Cellular S1P IC50 (μM)” represent the concentration of compound required to inhibit the production of S1P by 50%. ND=not determined.

T1 sequence (Q9NYA1 whole entry): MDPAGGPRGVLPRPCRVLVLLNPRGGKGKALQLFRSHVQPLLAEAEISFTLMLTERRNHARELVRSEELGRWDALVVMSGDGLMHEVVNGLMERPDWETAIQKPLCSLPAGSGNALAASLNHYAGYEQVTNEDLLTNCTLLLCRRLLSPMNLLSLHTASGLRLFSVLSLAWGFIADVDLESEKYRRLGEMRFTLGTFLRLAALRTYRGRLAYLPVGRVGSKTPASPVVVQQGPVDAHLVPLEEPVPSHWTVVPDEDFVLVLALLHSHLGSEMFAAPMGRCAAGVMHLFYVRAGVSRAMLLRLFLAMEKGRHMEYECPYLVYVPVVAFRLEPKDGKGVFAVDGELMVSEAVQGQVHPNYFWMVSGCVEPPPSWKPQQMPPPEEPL

Structure (SMILES) | inhibition at 6 µg/mL [%] | Recombinant SK (% inhibition) [%]
COc1ccc(CCNC(=O)C23CC4CC(C2)CC(c2ccc(Cl)cc2)(C4)C3)cc1Br [A42, 3-(4-Chloro-phenyl)-adamantane-1-carboxylic acid [2-(3-bromo-4-methoxy-phenyl)-ethyl]-amide] | 5 | –
O=C(NCCc1cccc(Oc2ccccc2)c1)C12CC3CC(C1)CC(c1ccc(Cl)cc1)(C3)C2 [A46, 3-(4-Chloro-phenyl)-adamantane-1-carboxylic acid [2-(3-phenoxy-phenyl)-ethyl]-amide] | 4 | –
O=C(NCCc1ccc(Oc2ccccc2)cc1)C12CC3CC(C1)CC(c1ccc(Cl)cc1)(C3)C2 [A47, 3-(4-Chloro-phenyl)-adamantane-1-carboxylic acid [2-(4-phenoxy-phenyl)-ethyl]-amide] | 26 | –
O=C(NCCCn1ccnc1)C12CC3CC(C1)CC(c1ccc(Cl)cc1)(C3)C2 [A65, 3-(4-Chloro-phenyl)-adamantane-1-carboxylic acid (3-imidazol-1-yl-propyl)-amide] | 3 | –
FC(F)(F)c1ccc(CNCC23CC4CC(C2)CC(c2ccc(Cl)cc2)(C4)C3)cc1 [A77, [3-(4-Chloro-phenyl)-adamantan-1-ylmethyl]-(4-trifluoromethyl-benzyl)-amine] | 27 | –
Fc1ccc(CNCC23CC4CC(C2)CC(c2ccc(Cl)cc2)(C4)C3)cc1C(F)(F)F [A79, [3-(4-Chloro-phenyl)-adamantan-1-ylmethyl]-(4-fluoro-3-trifluoromethyl-benzyl)-amine] | 19 | –
FC(F)(F)Oc1ccc(CNCC23CC4CC(C2)CC(c2ccc(Cl)cc2)(C4)C3)cc1 [A80, [3-(4-Chloro-phenyl)-adamantan-1-ylmethyl]-(4-trifluoromethoxy-benzyl)-amine] | 5 | –
Clc1ccc(C23CC4CC(CC(CNCCc5cccc(Oc6ccccc6)c5)(C4)C2)C3)cc1 [A81, [3-(4-Chloro-phenyl)-adamantan-1-ylmethyl]-[2-(3-phenoxy-phenyl)-ethyl]-amine] | 67 | –
CN1CCC(NCC23CC4CC(C2)CC(c2ccc(Cl)cc2)(C4)C3)CC1 [A82, [3-(4-Chloro-phenyl)-adamantan-1-ylmethyl]-(1-methyl-piperidin-4-yl)-amine] | 75 | –
Clc1ccc(C23CC4CC(CC(CNCCCN5CCCC5)(C4)C2)C3)cc1 [A85, [3-(4-Chloro-phenyl)-adamantan-1-ylmethyl]-(3-pyrrolidin-1-yl-propyl)-amine] | 0 | –
CN1CCCC1CCNCC12CC3CC(C1)CC(c1ccc(Cl)cc1)(C3)C2 (stereo not shown) [A86, [3-(4-Chloro-phenyl)-adamantan-1-ylmethyl]-[2-(1-methyl-pyrrolidin-2-yl)-ethyl]-amine] | 6 | –
CC(Nc1ccccc1)C12CC3CC(CC(c4ccccc4)(C3)C1)C2 (stereo not shown) [A93, Phenyl-[1-(3-phenyl-adamantan-1-yl)-ethyl]-amine] | 70 | –
CC(NC1CCN(C)CC1)C12CC3CC(CC(C3)C1)C2 (stereo not shown) [A104, (1-Adamantan-1-yl-ethyl)-(1-methyl-piperidin-4-yl)-amine] | 0 | –
O=C(/C=C/c1ccc(Cl)cc1)C12CC3CC(C1)CC(c1ccc(Cl)cc1)(C3)C2 [A130, 3-(4-Chloro-phenyl)-1-[3-(4-chloro-phenyl)-adamantan-1-yl]-propenone] | 38 | –
N#Cc1ccc(/C=C/C(=O)C23CC4CC(C2)CC(c2ccc(Cl)cc2)(C4)C3)cc1 [A131, 4-{3-[3-(4-Chloro-phenyl)-adamantan-1-yl]-3-oxo-propenyl}-benzonitrile] | 41 | –
O=C(/C=C/c1ccc2ccccc2c1)C12CC3CC(C1)CC(c1ccc(Cl)cc1)(C3)C2 [A133, 1-[3-(4-Chloro-phenyl)-adamantan-1-yl]-3-naphthalen-2-yl-propenone] | 36 | –
O=C(NCCCN1CCCC1)c1nc(-c2ccc(Cl)cc2)cs1 [B59, 4-(4-Chloro-phenyl)-thiazole-2-carboxylic acid (3-pyrrrolidin-1-yl-propyl)-amide] | – | 46

More lines, now with the values ahead:

inhibition at 6 µg/mL [%] | Recombinant SK (% inhibition) [%] | Structure (SMILES)
38 | – | CC(C)NC(=O)C12CC3CC(C1)CC(c1ccc(Cl)cc1)(C3)C2 [A1, 3-(4-Chloro-phenyl)-adamantane-1-carboxylic acid isopropylamide]
44 | – | O=C(Nc1ccccc1)C12CC3CC(C1)CC(c1ccc(Cl)cc1)(C3)C2 [A4, 3-(4-Chloro-phenyl)-adamantane-1-carboxylic acid phenylamide]
100 | – | O=C(Nc1ccc(O)cc1)C12CC3CC(CC(C3)C1)C2 [A5, Adamantane-1-carboxylic acid (4-hydroxy-phenyl)-amide]
72 | – | O=C(Nc1ccc(O)cc1)C12CC3CC(C1)CC(c1ccc(Cl)cc1)(C3)C2 [A6, 3-(4-Chloro-phenyl)-adamantane-1-carboxylic acid (4-hydroxy-phenyl)-amide]
100 | – | CC(=O)Oc1ccc(NC(=O)C23CC4CC(C2)CC(c2ccc(Cl)cc2)(C4)C3)cc1 [A7, Acetic acid 4-{[3-(4-chloro-phenyl)-adamantane-1-carbonyl]-amino}-phenyl ester]
37 | – | O=C(NCc1ccc(O)c(O)c1)C12CC3CC(C1)CC(c1ccc(Cl)cc1)(C3)C2 [A36, 3-(4-Chloro-phenyl)-adamantane-1-carboxylic acid 3,4-dihydroxy-benzylamide]
64 | – | O=C(NCCc1ccc2c(c1)OCO2)C12CC3CC(C1)CC(c1ccc(Cl)cc1)(C3)C2 [A45, 3-(4-Chloro-phenyl)-adamantane-1-carboxylic acid (2-benzo[1,3]dioxol-5-yl-ethyl)-amide]
33 | – | O=C(NCc1ccc(-c2ccccc2)cc1)C12CC3CC(C1)CC(c1ccc(Cl)cc1)(C3)C2 [A49, 3-(4-Chloro-phenyl)-adamantane-1-carboxylic acid (biphenyl-4-ylmethyl)-amide]
52 | – | CC(C)(C)NCCCNC(=O)C12CC3CC(C1)CC(c1ccc(Cl)cc1)(C3)C2 [A53, 3-(4-Chloro-phenyl)-adamantane-1-carboxylic acid (3-tert-butylamino-propyl)-amide]
95 | – | O=C(NCCCN1CCCC1)C12CC3CC(C1)CC(c1ccc(Cl)cc1)(C3)C2 [A54, 3-(4-Chloro-phenyl)-adamantane-1-carboxylic acid (3-pyrrolidin-1-yl-propyl)-amide]
8 | – | O=C1CCCN1CCCNC(=O)C12CC3CC(C1)CC(c1ccc(Cl)cc1)(C3)C2 [A55, 3-(4-Chloro-phenyl)-adamantane-1-carboxylic acid [3-(2-oxo-pyrrolidin-1-yl)-propyl]-amide]
0 | – | O=C(NCCN1CCNCC1)C12CC3CC(C1)CC(c1ccc(Cl)cc1)(C3)C2 [A59, 3-(4-Chloro-phenyl)-adamantane-1-carboxylic acid (2-piperazin-1-yl-ethyl)-amide]
10 | – | O=C(Nc1nnn[nH]1)C12CC3CC(C1)CC(c1ccc(Cl)cc1)(C3)C2 [A67, 3-(4-Chloro-phenyl)-adamantane-1-carboxylic acid (1H-tetrazol-5-yl)-amide]
53 | – | O=C(Nc1ncnc2[nH]cnc12)C12CC3CC(C1)CC(c1ccc(Cl)cc1)(C3)C2 [A73, 3-(4-Chloro-phenyl)-adamantane-1-carboxylic acid (9H-purin-6-yl)-amide]
43 | – | Fc1cc(C(F)(F)F)ccc1CNCC12CC3CC(C1)CC(c1ccc(Cl)cc1)(C3)C2 [A78, [3-(4-Chloro-phenyl)-adamantan-1-ylmethyl]-(2-fluoro-4-trifluoromethyl-benzyl)-amine]
84 | – | CC(C)(C)NCCCNCC12CC3CC(C1)CC(c1ccc(Cl)cc1)(C3)C2 [A84, N-tert-Butyl-N′-[3-(4-chloro-phenyl)-adamantan-1-ylmethyl]-propane-1,3-diamine]
1 | – | Clc1ccc(C23CC4CC(CC(CNCc5ccncc5)(C4)C2)C3)cc1 [A88, [3-(4-Chloro-phenyl)-adamantan-1-ylmethyl]-pyridin-4-ylmethyl-amine]
8 | – | O=C(/C=C/c1ccc(O)cc1)C12CC3CC(C1)CC(c1ccc(Cl)cc1)(C3)C2 [A132, 1-[3-(4-Chloro-phenyl)-adamantan-1-yl]-3-(4-hydroxy-phenyl)-propenone]
52 | – | O=C(/C=C/c1ccc(Cl)nc1)C12CC3CC(C1)CC(c1ccc(Cl)cc1)(C3)C2 [A134, 1-[3-(4-Chloro-phenyl)-adamantan-1-yl]-3-(6-chloro-pyridin-3-yl)-propenone]
64 | – | O=C(/C=C/c1cnc[nH]1)C12CC3CC(C1)CC(c1ccc(Cl)cc1)(C3)C2 [A135, 1-[3-(4-Chloro-phenyl)-adamantan-1-yl]-3-(1H-imidazol-4-yl)-propenone]

System: endogenous SK activity in MDA-MB-231 cells
Assay: Cellular S1P production (endogenous SK activity) in MDA-MB-231 cells
Assay type: cell-based
Settings: Homo sapiens, MDA-MB-231, MDA-MB-231 cells incubated with 20 μg/mL of compound; percentage of S1P production inhibited
Method in brief: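 MDA-MB-231 cells treated with 20 μg/mL compound and assayed for endogenous SK activity, reported as % inhibition of S1P production. For IC50, cells received varying compound concentrations and S1P produced was measured; IC50 is the concentration giving 50% inhibition.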

Structure (SMILES) | inhibition at 20 µg/mL [%]
CC(C)NC(=O)C12CC3CC(C1)CC(c1ccc(Cl)cc1)(C3)C2 [A1, 3-(4-Chloro-phenyl)-adamantane-1-carboxylic acid isopropylamide] | 0
O=C(Nc1ccccc1)C12CC3CC(C1)CC(c1ccc(Cl)cc1)(C3)C2 [A4, 3-(4-Chloro-phenyl)-adamantane-1-carboxylic acid phenylamide] | 14
O=C(Nc1ccc(O)cc1)C12CC3CC(CC(C3)C1)C2 [A5, Adamantane-1-carboxylic acid (4-hydroxy-phenyl)-amide] | 17
O=C(Nc1ccc(O)cc1)C12CC3CC(C1)CC(c1ccc(Cl)cc1)(C3)C2 [A6, 3-(4-Chloro-phenyl)-adamantane-1-carboxylic acid (4-hydroxy-phenyl)-amide] | 90
CC(=O)Oc1ccc(NC(=O)C23CC4CC(C2)CC(c2ccc(Cl)cc2)(C4)C3)cc1 [A7, Acetic acid 4-{[3-(4-chloro-phenyl)-adamantane-1-carbonyl]-amino}-phenyl ester] | 96

Same assay, conditions: Homo sapiens; MDA-MB-231 cells, varying concentrations; concentration inhibiting S1P production by 50%

IC50 [µM] | Structure (SMILES)
15 | O=C(Nc1ccc(O)cc1)C12CC3CC(C1)CC(c1ccc(Cl)cc1)(C3)C2 [A6, 3-(4-Chloro-phenyl)-adamantane-1-carboxylic acid (4-hydroxy-phenyl)-amide]
